We go through 1 compound from publication PMC10924921, “Mi-2β promotes immune evasion in melanoma by activating EZH2 methylation” (Nature Communications, 2024).

Common to all, as to experiment: biochemical
Parameters in all cases: KINOMEscan active-site competition binding panel (468 kinase assays), per cent of control at 1000 nM
Holding throughout (conditions): KINOMEscan per cent of control (binding competition); read-out: Percent Control

The target in assay [1] is T1, ABL1(F317L)-nonphosphorylated (Homo sapiens, UniProt P00519, F317L).
T1 construct: nonphosphorylated
T1 sequence (P00519 whole entry F317L): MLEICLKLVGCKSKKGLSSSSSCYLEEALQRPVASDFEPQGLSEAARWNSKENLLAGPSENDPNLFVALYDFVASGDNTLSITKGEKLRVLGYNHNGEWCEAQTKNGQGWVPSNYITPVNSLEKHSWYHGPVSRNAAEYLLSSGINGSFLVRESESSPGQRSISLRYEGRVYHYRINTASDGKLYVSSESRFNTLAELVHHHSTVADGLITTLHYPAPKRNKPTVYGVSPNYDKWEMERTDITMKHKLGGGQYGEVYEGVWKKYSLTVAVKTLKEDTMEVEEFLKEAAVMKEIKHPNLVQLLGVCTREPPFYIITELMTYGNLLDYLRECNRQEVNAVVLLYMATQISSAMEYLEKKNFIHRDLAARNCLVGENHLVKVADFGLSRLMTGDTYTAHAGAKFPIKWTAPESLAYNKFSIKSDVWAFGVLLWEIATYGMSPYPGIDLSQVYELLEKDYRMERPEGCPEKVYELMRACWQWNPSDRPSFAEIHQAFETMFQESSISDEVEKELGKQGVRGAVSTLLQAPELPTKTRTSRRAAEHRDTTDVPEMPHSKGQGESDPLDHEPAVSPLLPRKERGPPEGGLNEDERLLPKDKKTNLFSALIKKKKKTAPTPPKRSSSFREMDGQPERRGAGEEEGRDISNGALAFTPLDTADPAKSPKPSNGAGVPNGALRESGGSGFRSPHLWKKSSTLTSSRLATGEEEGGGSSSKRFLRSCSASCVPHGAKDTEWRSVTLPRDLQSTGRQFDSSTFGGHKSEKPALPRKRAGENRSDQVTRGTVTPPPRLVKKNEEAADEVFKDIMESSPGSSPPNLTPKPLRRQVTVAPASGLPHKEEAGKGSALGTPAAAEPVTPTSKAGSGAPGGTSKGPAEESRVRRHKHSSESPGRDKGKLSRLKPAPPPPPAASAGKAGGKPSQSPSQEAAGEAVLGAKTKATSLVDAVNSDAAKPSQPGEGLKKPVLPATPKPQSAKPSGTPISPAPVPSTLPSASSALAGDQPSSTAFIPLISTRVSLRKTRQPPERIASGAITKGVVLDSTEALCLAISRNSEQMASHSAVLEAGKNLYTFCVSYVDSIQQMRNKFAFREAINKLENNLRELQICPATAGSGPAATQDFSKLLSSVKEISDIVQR
An excerpt: (§1) Figure S7 / Percent Control

Assay [2] deals with ALK (Homo sapiens, UniProt Q9UM73).
From the text: as §1

For assay [3], the target named is CAMKK1 (Homo sapiens, UniProt Q8N5S9).
Sequence of CAMKK1 (Q8N5S9 whole entry): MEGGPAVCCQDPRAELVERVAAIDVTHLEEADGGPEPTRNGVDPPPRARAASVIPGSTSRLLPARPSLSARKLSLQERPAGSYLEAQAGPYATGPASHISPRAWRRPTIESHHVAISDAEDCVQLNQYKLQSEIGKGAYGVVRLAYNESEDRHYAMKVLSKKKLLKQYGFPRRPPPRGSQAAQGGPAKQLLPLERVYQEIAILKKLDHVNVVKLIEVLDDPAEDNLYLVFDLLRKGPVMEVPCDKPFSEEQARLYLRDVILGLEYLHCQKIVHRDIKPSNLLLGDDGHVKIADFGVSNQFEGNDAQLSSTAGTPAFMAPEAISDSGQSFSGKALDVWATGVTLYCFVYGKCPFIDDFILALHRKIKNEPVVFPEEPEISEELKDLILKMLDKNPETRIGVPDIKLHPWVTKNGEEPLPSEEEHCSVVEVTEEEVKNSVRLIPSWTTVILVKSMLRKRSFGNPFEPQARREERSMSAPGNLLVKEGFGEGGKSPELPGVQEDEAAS
From the text: as §1

The target of assay [4] is T2, DCAMKL2 (Homo sapiens, UniProt Q8N568).
T2 construct: gene DCLK2
From the text: as §1

The target of assay [5] is T3, FAK (Homo sapiens, UniProt Q05397).
T3 construct: gene PTK2
From the text: as §1

Assay [6] concerns the target FLT3(R834Q) (Homo sapiens, UniProt P36888, R834Q).
From the text: as §1

For assay [7], the target named is GRK4 (Homo sapiens, UniProt P32298).
Sequence of GRK4 (P32298 whole entry): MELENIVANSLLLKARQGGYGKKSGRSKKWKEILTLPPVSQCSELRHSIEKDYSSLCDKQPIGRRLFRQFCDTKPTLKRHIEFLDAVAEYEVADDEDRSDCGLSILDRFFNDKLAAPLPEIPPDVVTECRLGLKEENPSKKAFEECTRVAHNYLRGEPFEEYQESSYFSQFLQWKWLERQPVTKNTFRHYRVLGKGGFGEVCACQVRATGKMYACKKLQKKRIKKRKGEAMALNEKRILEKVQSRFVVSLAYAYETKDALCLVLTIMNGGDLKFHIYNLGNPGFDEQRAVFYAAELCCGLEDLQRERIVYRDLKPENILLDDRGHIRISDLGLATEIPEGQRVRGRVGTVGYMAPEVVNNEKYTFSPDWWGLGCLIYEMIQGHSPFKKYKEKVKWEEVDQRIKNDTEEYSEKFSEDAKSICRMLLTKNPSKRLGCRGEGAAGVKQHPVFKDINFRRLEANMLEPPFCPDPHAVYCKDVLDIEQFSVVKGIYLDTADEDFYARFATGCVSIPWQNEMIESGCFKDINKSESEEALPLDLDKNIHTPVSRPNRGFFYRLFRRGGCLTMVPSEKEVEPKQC
From the text: as §1

The target in assay [8] is GRK7 (Homo sapiens, UniProt Q8WTQ7).
From the text: as §1

Assay [9] deals with LYN (Homo sapiens, UniProt P07948).
Sequence of LYN (P07948 whole entry): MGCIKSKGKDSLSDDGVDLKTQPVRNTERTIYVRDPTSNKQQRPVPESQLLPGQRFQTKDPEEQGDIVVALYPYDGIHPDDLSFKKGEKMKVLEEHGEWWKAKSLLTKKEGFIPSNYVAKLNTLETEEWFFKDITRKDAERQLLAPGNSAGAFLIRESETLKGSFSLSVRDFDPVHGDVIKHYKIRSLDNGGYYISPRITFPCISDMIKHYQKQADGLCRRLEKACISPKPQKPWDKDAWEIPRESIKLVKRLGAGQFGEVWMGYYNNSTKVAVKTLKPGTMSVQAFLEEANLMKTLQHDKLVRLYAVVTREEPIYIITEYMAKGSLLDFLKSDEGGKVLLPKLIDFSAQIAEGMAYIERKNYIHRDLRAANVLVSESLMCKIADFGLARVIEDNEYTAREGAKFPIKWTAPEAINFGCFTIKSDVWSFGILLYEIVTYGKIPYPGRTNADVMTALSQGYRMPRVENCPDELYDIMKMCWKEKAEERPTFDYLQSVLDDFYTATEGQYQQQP
From the text: as §1

In assay [10] the target is T4, MEK3 (Homo sapiens, UniProt P46734).
T4 construct: gene MAP2K3
From the text: as §1

In assay [11] the target is T5, MEK4 (Homo sapiens, UniProt P45985).
T5 construct: gene MAP2K4
T5 sequence (P45985 whole entry): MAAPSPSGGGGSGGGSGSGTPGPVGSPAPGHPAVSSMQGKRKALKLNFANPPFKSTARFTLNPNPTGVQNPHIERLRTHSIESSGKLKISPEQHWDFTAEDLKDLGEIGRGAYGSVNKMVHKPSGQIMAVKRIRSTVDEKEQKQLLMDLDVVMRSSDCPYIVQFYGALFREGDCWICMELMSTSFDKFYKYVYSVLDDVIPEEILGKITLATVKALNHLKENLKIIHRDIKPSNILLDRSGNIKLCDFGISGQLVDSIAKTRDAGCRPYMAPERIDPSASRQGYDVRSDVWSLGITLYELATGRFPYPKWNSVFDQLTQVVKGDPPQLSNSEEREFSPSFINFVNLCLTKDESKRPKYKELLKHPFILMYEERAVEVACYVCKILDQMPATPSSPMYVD
From the text: as §1

The target in assay [12] is T6, MST3 (Homo sapiens, UniProt Q9Y6E0).
T6 construct: gene STK24
From the text: as §1

Assay [13] concerns the target MYLK (Homo sapiens, UniProt Q15746).
From the text: as §1

Assay [14] concerns the target MYLK2 (Homo sapiens, UniProt Q9H1R3).
From the text: as §1

The target in assay [15] is MYLK4 (Homo sapiens, UniProt Q86YV6).
Sequence of MYLK4 (Q86YV6 whole entry): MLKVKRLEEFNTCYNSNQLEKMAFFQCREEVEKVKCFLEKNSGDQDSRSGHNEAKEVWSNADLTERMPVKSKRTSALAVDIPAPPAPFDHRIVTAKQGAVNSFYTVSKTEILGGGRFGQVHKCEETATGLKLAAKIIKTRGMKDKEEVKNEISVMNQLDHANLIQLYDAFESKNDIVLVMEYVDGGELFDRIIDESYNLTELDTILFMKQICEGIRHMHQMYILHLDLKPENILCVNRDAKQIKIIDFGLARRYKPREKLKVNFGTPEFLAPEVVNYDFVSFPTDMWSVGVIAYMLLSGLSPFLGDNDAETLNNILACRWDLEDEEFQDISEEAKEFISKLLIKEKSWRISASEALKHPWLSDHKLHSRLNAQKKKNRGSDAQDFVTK
From the text: as §1

For assay [16], the target named is PIKFYVE (Homo sapiens, UniProt Q9Y2I7).
From the text: as §1

The target in assay [17] is PRKG1 (Homo sapiens, UniProt Q13976).
From the text: as §1

Assay [18] concerns the target RIPK1 (Homo sapiens, UniProt Q13546).
From the text: as §1

In assay [19] the target is ROCK1 (Homo sapiens, UniProt Q13464).
From the text: as §1

The target in assay [20] is T7, RPS6KA5(Kin.Dom.1-N-terminal) (Homo sapiens, UniProt O75582).
T7 construct: Kin.Dom.1-N-terminal
From the text: as §1

Assay [21] has as its target T8, RSK2(Kin.Dom.2-C-terminal) (Homo sapiens, UniProt P51812).
T8 construct: gene RPS6KA3; Kin.Dom.2-C-terminal
From the text: as §1

Assay [22] addresses T9, SGK (Homo sapiens, UniProt O00141).
T9 construct: gene SGK1
From the text: as §1

The target in assay [23] is TYRO3 (Homo sapiens, UniProt Q06418).
From the text: as §1

Assay [24] concerns the target T10, p38-alpha (Homo sapiens, UniProt Q16539).
T10 construct: gene MAPK14
From the text: as §1

The structures appear in SMILES notation.

T8 sequence (P51812 whole entry): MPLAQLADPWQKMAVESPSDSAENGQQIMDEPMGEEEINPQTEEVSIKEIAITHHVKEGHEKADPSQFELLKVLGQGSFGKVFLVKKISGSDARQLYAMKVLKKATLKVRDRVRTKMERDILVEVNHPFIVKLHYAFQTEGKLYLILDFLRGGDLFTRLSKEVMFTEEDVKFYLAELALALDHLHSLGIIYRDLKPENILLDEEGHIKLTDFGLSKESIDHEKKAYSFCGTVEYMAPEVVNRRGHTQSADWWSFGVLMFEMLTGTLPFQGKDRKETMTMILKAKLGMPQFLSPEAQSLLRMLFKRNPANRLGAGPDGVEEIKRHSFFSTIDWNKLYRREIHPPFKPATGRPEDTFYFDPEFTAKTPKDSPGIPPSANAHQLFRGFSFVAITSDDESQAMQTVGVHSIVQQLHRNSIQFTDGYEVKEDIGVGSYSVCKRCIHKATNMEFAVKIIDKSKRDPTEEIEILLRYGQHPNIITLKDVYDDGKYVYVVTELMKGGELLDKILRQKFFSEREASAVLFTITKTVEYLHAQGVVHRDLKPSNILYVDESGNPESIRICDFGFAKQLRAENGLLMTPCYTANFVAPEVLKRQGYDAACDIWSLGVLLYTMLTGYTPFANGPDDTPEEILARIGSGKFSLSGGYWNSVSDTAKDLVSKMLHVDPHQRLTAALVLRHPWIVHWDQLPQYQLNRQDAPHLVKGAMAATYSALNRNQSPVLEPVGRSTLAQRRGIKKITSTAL
Sequence of MYLK2 (Q9H1R3 whole entry): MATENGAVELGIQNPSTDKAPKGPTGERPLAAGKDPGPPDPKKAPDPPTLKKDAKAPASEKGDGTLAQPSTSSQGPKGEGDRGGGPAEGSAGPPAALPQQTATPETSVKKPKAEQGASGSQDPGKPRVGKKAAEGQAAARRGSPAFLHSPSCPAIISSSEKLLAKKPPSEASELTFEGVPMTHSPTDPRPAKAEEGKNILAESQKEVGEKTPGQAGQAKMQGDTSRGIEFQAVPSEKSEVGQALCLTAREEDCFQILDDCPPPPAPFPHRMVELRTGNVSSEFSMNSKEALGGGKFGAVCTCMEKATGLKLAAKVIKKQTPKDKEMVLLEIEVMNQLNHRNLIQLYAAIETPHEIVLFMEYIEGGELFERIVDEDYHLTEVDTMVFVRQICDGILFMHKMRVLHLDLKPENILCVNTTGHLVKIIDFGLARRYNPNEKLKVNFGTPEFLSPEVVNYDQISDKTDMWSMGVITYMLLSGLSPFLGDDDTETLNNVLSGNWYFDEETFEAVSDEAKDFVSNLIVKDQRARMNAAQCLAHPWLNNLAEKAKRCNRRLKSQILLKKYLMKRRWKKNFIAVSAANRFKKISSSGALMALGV

As for `Cn1c(=O)[nH]c2ccc(-c3cccc(C(=O)NC4CCn5ccnc5C4)c3)cc21` (stereo not drawn) [Z36-MP5], the remaining binding at 1 µM came out at 82% in assay [1]; 51% in [2]; 39% in assay [3]; 90% in assay [4]; 88% in assay [5]; 40% in assay [6]. In addition, the remaining binding at 1 µM in assay [7] turned out to be 52%; in [8], 90%; in [9] it was 77%; in [10] it was 66%; in assay [11] it was 84%; in [12] it was 96%. The remaining binding at 1 µM came to 81% in assay [13]; 96% in assay [14]; 93% in [15]; 96% in [16]; 64% in [17]; 87% in [18]. Moreover, the remaining binding at 1 µM in [19] came out at 54%; in [20], 75%; in [21], 63%; in assay [22], 68%; in [23] it was 100%; in assay [24], 63%.
